Experiments:
[1] = test system: yeasts; conditions: saturated calcium hydroxide solution (pH≧12.5), in vitro; cited from earlier work
[2] = test system: enterococci; conditions: saturated calcium hydroxide solution (pH≧12.5), in vitro; cited from earlier work
[3] = test system: Enterococcus faecalis A197A; type: cell-based; conditions: all exposure times (5 seconds, 30 seconds, 3 minutes); detection level 99.995% killing
Description: The antibacterial activity of the composition was evaluated by exposing a planktonic culture (in suspension) of Enterococcus faecalis A197A, a resistant bacterial species often isolated from treatment resistant endodontic infections (root canal infections). In the evaluation, cultures were exposed for 5 seconds, 30 seconds, and 3 minutes. Detection level was at 99.995% killing.

| Compound | time to kill yeasts [1] [h] | time to kill enterococci [2] [min] | survival of Enterococcus faecalis A197A (cfu %) [3] [%] |
| --- | --- | --- | --- |
| [Ca+2].[OH-].[OH-] [calcium hydroxide, Calcium hydroxide] | ≤ 6 | ≤ 20 |  |
| O=C(O)CN(CCN(CC(=O)O)CC(=O)O)CC(=O)O [17% EDTA, ethylenediamine tetraacetic acid] |  |  | 100 |

Reference: patent US8455473B2, “Composition and method for irrigation of a prepared dental root canal” (The University of British Columbia, priority 2008, dated 2013)
